Source: patent US9738605B2, “Hybrid compounds of curcumin and melatonin as neuroprotectants for neurodegenerative disorders” (VIRGINIA COMMONWEALTH UNIVERSITY, priority 2013, dated 2017)
Entries after “also recorded” stand apart in the source; their conditions may differ. Like-named read-outs stand apart in the source and are kept apart here.

Key:
MC65 cells [1] = test: Neuroprotection assay in MC65 cells (−TC, MTT)
Experimental: MC65 cells were washed twice with PBS, resuspended in Opti-MEM, and seeded in 96-well plates (4×10^4 cells/well). Indicated compounds were then added, and cells were incubated at 37° C. under +TC or −TC conditions for 72 h. Then, 10 μL of MTT (5 mg/mL in PBS) were added and the cells were incubated for another 4 h. Cell medium was then removed, and the remaining formazan crystals produced by the cellular reduction of MTT were dissolved in DMSO. Absorbance at 570 nm was immediately recorded using a FlexStation® 3 plate reader (Molecular Devices, CA).

Aβ42 [2] = target: T1, Aβ42 (Homo sapiens, UniProt P05067); test: Thioflavin T assay of Aβ42 fibril formation; assay type: biochemical; conditions: up to 100 μM, 48 h, ThT
T1 construct: purchased American Peptide, Inc. (Sunnyvale, Calif.)
Experimental: Briefly, 1 μL of each compound solution in DMSO (0.01 μM to 100 μM) was added to corresponding wells in a 96-well plate. Each concentration was prepared in independent triplicates and a solvent control was included. To each well, 9 μL of 25 μM Aβ42 in PBS (pH 7.4) was added, and then plates were incubated in dark at room temperature for 48 h. Next, 200 μL of a 5 μM ThT in 50 mM glycine solution (pH 8.0) was added to each well.

Aβ42 [3] = target: T1, Aβ42; test: AFM analysis of Aβ42 fibril and oligomer formation; assay type: biochemical; conditions: 1:1 ratio with Aβ42, 24 h
Experimental: Aβ42 oligomers and fibrils were prepared based on reported procedures.^43 Indicated compounds were incubated with Aβ42 at a 1:1 ratio for both conditions for 24 h. Samples were loaded on mica, washed extensively with water, and dried overnight at room temperature before AFM analysis. The morphology of the Aβ42 aggregates was assessed using an atomic force microscope (Dimension Icon, Bruker) operating in tapping mode in air. The scan rate was varied between 1 Hz and 0.5 Hz depending on the tracking quality. The silicon tips (Bruker mpp2100-100) have a sharpness of less than 5 nm and a force constant between 3 and 5 N/m along with a resonant frequency rated between […]. All images were taken with 512 points per line, with a 1:1 ratio. Images were processed using Nanoscope analysis software version 1.20 and Image-J (from the National Institutes of Health).

MC65 cells [4] = test: Rotenone protection assay in MC65 cells; assay type: cell-based; conditions: up to 1 μM, rotenone 10 μM, 48 h
Experimental: The medium was removed and compounds were added at the indicated concentrations in fresh growth medium, and the cells were incubated for another 2 h. Rotenone was then added at a final concentration of 10 μM, and the plates were then incubated for 48 h. Cell viability was assessed by MTT assay.

in vitro = conditions: PAMPA
Experimental: In the same assay, 10 commercial drugs with known CNS penetration were also tested as positive controls, and their experimental values were compared to reported values (Table 1).

[5] = In vivo BBB penetration experiment, LC-MS/MS of plasma and brain; design: species or system CD-1 male mice
Experimental: Briefly, ten week old CD-1 male mice were purchased from Harlan Laboratories (Frederich, Md.). Compound 9 was diluted to a concentration of 15 mg/mL in a solution with 2% DMSO and 10% Cremophor in PBS, and was administered via oral gavage at a final dosage of 50 mg/kg. Two groups of mice (n=6/group) were used to determine the plasma and brain concentrations of the compound at various time-points. […] Afterwards, the right atrium was removed to allow exsanguination, and the left ventricular apex was cannulated with a 24 G needle and perfused with 30 mL of warm (37° C.) heparinized normal saline solution to enable perfusion of all the organs and complete blood washout. The perfused brains were then collected, rapidly washed in normal saline, blot-dried, and frozen in liquid nitrogen. Brain samples were then analyzed by the LC-MS/MS.
For brain samples, half a brain was weighed and diluted with 1.0 mL of acetonitrile and then mixed well. For plasma samples, 0.01 mL of plasma was diluted with 0.99 mL of acetonitrile and then mixed well. After mixing, samples were centrifuged at 15,000 rpm and the supernatant was transferred to a new tube and evaporated to dryness using spin vacuum. The samples were then reconstituted with an 80:20 solution of 1% acetic acid in acetonitrile: 1% acetic acid in water, and a volume of 0.025 mL was then injected into the LC-MS/MS. The LC/MS/MS method employed positive electrospray ionization (ESI) with a selected reaction monitoring (SRM) mode. Compound 9 was monitored using the following SRM transitions: 381→174, 130, and 159. Chromatographic separation was achieved under gradient conditions using a Waters Acquity® UPLC, with a reversed phase column (Gemini 5u C18 110 Å, 100 mm×2.0 mm; 5 um, Phenomenex Inc., Torrance, Calif.) with a mobile phase composition of 1% acetic acid in water (mobile phase A) and 1% acetic acid in acetonitrile (mobile phase B). The initial gradient consisted of 30% B for 1 min, 30% to 95% B from 1 to 3 min, hold for 1 min at 95% B, and then equilibrate at 30% B for 2.5 min. The total run time was 6.5 min. Results were processed using Analyst 1.5.2 software. Absolute recovery, precision and accuracy, and matrix effects experiments produced an efficient method to continue sample analysis. Calibration curves were made with freshly prepared samples and calculated using peak area versus concentration with a linear or quadratic regression. Accuracy fell in the range of 85% to 115%.
To accurately quantify the amount of 7 that is delivered into brain tissue and rule out the possibility of biased interpretation from vascular trapping, we perfused the mice to wash out the vascular blood completely prior to collecting brain tissues. After oral administration, plasma samples were collected at 0.25, 0.5, 1, and 24 hours, and brain samples were collected at 1 and 24 hours.

T1 sequence (P05067 672-713 limits assumed): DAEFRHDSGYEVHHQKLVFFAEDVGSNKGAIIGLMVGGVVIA

inhibition of the formation of Aβ42 fibrils (Aβ42 [2]): no significant inhibition
inhibition of fibrillization and oligomerization of Aβ42 (AFM) (Aβ42 [3]): no inhibition
Papp (in vitro): 7.9 ± 0.6 ×10⁻⁶ cm/s
concentration at 1 h ([5]; male, CD-1, mouse, brain, po, 50 mg/kg, perfused mice, n = 6, 1 h, read-out: Brain concentration, 1 h): 555 ± 188 nM
concentration at 24 h ([5]; male, CD-1, mouse, brain, po, 50 mg/kg, perfused mice, n = 6, 24 h, read-out: Brain concentration, 24 h): 47.4 ± 11.2 nM
concentration at 15 min ([5]; male, CD-1, mouse, plasma, po, 50 mg/kg, mice, n = 6, 15 min): 773 ± 310 nM
concentration at 30 min ([5]; male, CD-1, mouse, plasma, po, 50 mg/kg, mice, n = 6, 30 min): 795 ± 301 nM
concentration at 1 h ([5]; male, CD-1, mouse, plasma, po, 50 mg/kg, mice, n = 6, 1 h, read-out: Plasma concentration, 1 h): 883 ± 350 nM
concentration at 24 h ([5]; male, CD-1, mouse, plasma, po, 50 mg/kg, mice, n = 6, 24 h, read-out: Plasma concentration, 24 h): 30.5 ± 12 nM
Plasma concentration, 15 min ([5]; oral 50 mg/kg, mice, n = 6, 15 min): 773.80 ± 309.86 nM
Plasma concentration, 1 h ([5]; oral 50 mg/kg, mice, n = 6, 1 h): 883.12 ± 350.36 nM
Plasma concentration, 24 h ([5]; oral 50 mg/kg, mice, n = 6, 24 h): 30.53 ± 11.96 nM
Brain concentration, 1 h ([5]; oral 50 mg/kg, perfused mice, n = 6, 1 h): 555.40 ± 188.44 nM
Brain concentration, 24 h ([5]; oral 50 mg/kg, perfused mice, n = 6, 24 h): 47.41 ± 11.19 nM
SMILES: COc1ccc2[nH]cc(CCNC(=O)CC(=O)CCc3ccc(O)cc3)c2c1 [Compound 7, 5-(4-hydroxy-phenyl)-3-oxo-pentanoic acid [2-(5-methoxy-1H-indol-3-yl)-ethyl]-amide]
neuroprotection of MC65 cells from −TC induced cell death (MC65 cells [1]; 0.3 μM, −TC, 72 h, MTT): significant and comparable protection
EC50 (MC65 cells [1]; MC65, 72 h, read-out: EC50 for neuroprotection of MC65 cells): 27.6 ± 9.4 nM
protection from rotenone-induced cytotoxicity (MC65 cells [4]): did not show protection
BBB penetration after oral administration ([5]; oral 50 mg/kg, mice): confirmed to cross the blood-brain barrier; also recorded: confirming its BBB permeability
